Measured values published in PMC8035174, “The Pseudomonas aeruginosa substrate-binding protein Ttg2D functions as a general glycerophospholipid transporter across the periplasm” (Communications Biology, 2021).
Values after ≈ are worked out from the molar mass of the structure shown.

Each molecule was assayed on T1, Pseudomonas aeruginosa PAO1 (assay: microbe, parasite or virus in culture). Details: PAO1, 20 h, read-out: MIC PAO1.
T1 construct: PAO1
Design: broth microdilution MIC in cation-adjusted Mueller-Hinton broth, visual growth or resazurin
Procedure: Analysis of antimicrobial susceptibilities. […] The BMD method was performed on cation adjusted MH broth (CAMHB) as recommended 41, 42 . Bacteria were first grown overnight in CAMHB using CLSI-recommended incubation conditions and the antibiotics were serially diluted twofold across the 96 well plates. After that, 100 µl of a bacterial suspension diluted to 5x10^5 CFU/ml in CAMHB was added to the wells containing the antibiotic dilutions. The 96-well plates were incubated for 20 h at 37°C before developing by visual inspection or with the resazurin dye 43 . MIC was defined as the lowest concentration of the antibiotic (in μg/ml) that prevented visual growth. As the LESB58 isolate is considered a slower growing strain compared to laboratory strain PAO1 44, incubation for bacterial growth was extended to 48 h instead of 24 h for some protocols. […] For Etest a 0.5 McFarland suspension was used to create a confluent lawn of microbial growth in 150-mm Mueller-Hinton (MH) agar plates. The MIC values were determined according to the Etest reading guide after 18 h incubation at 37°C. MICs were determined as the concentration at which the zone of inhibition intersected the Etest strip.

SMILES | MIC [µg/mL]
CN(C)c1cc(NC(=O)CNC(C)(C)C)c(O)c2c1C[C@H]1C[C@H]3[C@H](N(C)C)C(O)=C(C(N)=O)C(=O)[C@@]3(O)C(O)=C1C2=O [Tigecycline] | 32 (≈ 54.6 µM)
C[C@H]1COc2c(N3CCN(C)CC3)c(F)cc3c(=O)c(C(=O)O)cn1c23 [Levofloxacin] | 4 (≈ 11.1 µM)
CC1(C)S[C@@H]2[C@H](NC(=O)[C@H](C(=O)O)c3ccsc3)C(=O)N2[C@H]1C(=O)O [Ticarcillin] | 16 (≈ 41.6 µM)
C[C@@H](O)[C@H]1C(=O)N2C(C(=O)O)=C(S[C@@H]3CN[C@H](C(=O)N(C)C)C3)[C@H](C)[C@H]12 [Meropenem] | 1 (≈ 2.61 µM)
CCN1CCN(C(=O)N[C@@H](C(=O)N[C@@H]2C(=O)N3[C@@H]2SC(C)(C)[C@@H]3C(=O)O)c2ccccc2)C(=O)C1=O [Piperacillin] | 2 (≈ 3.86 µM)
CN(C)c1ccc(O)c2c1C[C@H]1C[C@H]3[C@H](N(C)C)C(O)=C(C(N)=O)C(=O)[C@@]3(O)C(O)=C1C2=O [Minocycline] | 32 (≈ 69.9 µM)
CCn1cc(C(=O)O)c(=O)c2cc(F)c(N3CCNCC3)cc21 [Norfloxacin] | 4 (≈ 12.5 µM)
CN[C@@H]1[C@H](O[C@H]2[C@H](O[C@H]3[C@H](O)[C@@H](O)[C@H](N=C(N)N)[C@@H](O)[C@@H]3N=C(N)N)O[C@@H](C)[C@]2(O)C=O)O[C@@H](CO)[C@H](O)[C@H]1O [Streptomycin] | 8 (≈ 13.8 µM)
C[C@@H](O)[C@H]1C(=O)N2C(C(=O)O)=C(SCCNC=N)C[C@H]12 [Imipenem] | 4 (≈ 13.4 µM)
CC1COc2c(N3CCN(C)CC3)c(F)cc3c(=O)c(C(=O)O)cn1c23 (stereo not shown) [Ofloxacin] | 8 (≈ 22.1 µM)
CC(C)(O/N=C(\C(=O)N[C@@H]1C(=O)N2C(C(=O)[O-])=C(C[n+]3ccccc3)CS[C@H]12)c1csc(N)n1)C(=O)O [Ceftazidime] | 1 (≈ 1.83 µM)
O=C(N[C@H](CO)[C@H](O)c1ccc([N+](=O)[O-])cc1)C(Cl)Cl [Chloramphenicol] | > 256
NCC[C@H](O)C(=O)N[C@@H]1C[C@H](N)[C@@H](O[C@H]2O[C@H](CN)[C@@H](O)[C@H](O)[C@H]2O)[C@H](O)[C@H]1O[C@H]1O[C@H](CO)[C@@H](O)[C@H](N)[C@H]1O [Amikacin] | 2 (≈ 3.42 µM)
